# Laboratory results: US11976083B2, “Inhibitors of peptidylarginine deiminases” (Gilead Sciences, Inc., priority 2020, dated 2024)
# pIC50: −log10 of the molar value.
# Biological target: T1, human PAD4 (Homo sapiens, UniProt Q9UM07)
# T1 construct: human PAD4 (NM_012387), A2-P663, was PCR amplified; His-SUMO (N, cleaved yes); made in house; host or cells: E. coli BL21(DE3)
# Experiment: In vitro PAD4 BAEE biochemical assay
# Conditions: BAEE substrate 3 mM, 5 nM PAD4, 2 mM calcium chloride; geometric mean of multiple experiments
# In short: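 Fluorescence read-out (ex 405/em 535 nm) of isoindole formed from ammonia, o-phthalaldehyde and DTT after EDTA stop. Reaction: 5 nM PAD4, 2 mM CaCl2, 3 mM BAEE, 2 h, 25 °C, after 30 min enzyme–compound preincubation. Normalised to BB-Cl-Amidine (50 µM) and DMSO controls.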
# T1 sequence (Q9UM07 2-663): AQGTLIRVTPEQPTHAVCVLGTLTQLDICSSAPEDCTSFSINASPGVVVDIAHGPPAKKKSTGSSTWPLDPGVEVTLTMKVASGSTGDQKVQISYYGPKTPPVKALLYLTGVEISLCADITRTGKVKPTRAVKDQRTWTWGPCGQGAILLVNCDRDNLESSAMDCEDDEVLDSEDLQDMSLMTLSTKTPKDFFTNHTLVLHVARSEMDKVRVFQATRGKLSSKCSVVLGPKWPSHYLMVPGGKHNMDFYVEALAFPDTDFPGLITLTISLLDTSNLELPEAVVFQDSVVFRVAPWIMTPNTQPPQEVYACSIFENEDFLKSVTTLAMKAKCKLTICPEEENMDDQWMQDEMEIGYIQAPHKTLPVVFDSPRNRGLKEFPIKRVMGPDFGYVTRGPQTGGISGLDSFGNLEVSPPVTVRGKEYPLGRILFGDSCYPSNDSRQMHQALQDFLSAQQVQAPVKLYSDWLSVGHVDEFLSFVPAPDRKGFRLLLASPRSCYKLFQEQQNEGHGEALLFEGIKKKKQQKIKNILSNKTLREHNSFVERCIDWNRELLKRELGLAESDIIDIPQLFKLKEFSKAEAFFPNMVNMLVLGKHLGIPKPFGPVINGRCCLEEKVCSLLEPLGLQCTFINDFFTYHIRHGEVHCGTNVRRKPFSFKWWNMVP
row,pIC50,SMILES
1,7.04,"COc1cc(C(=O)N2CC[C@@H](OC)[C@@H](N)C2)cc2nc(-c3cc4ccc5nc4n3CCCCCC[C@@](C)(C(F)(F)F)C(=O)N[C@@H]5C)n(C)c12 [Example 719, (8~{R},11~{R})-17-[5-[(3~{S},4~{R})-3-amino-4-methoxy-piperidine-1-carbonyl]-7-methoxy-1-methyl-benzimidazol-2-yl]-8,11-dimethyl-8-(trifluoromethyl)-1,10,19-triazatricyclo[10.5.2.0^ {15,18}]nonadeca-12(19),13,15(18),16-tetraen-9-one]"
2,6.97,"COc1cc(C(=O)N2C[C@H]3CC[C@@H]2[C@@H]3N)cc2nc(-c3cc4ccc5nc4n3CCCCCc3ccccc3C(=O)N[C@@H]5C)n(C)c12 [Example 42, (2~{R})-17-[5-[(1~{R},4~{R},7~{R})-7-amino-2-azabicyclo[2.2.1]heptane-2-carbonyl]-7-methoxy-1-methyl-benzimidazol-2-yl]-2-methyl-3,16,22-triazatetracyclo[14.5.2.0^{5,10}.0^{19,23}] tricosa-1(22),5,7,9,17,19(23),20-heptaen-4-one]"
3,7.52,"C[C@H]1NC(=O)c2ccc(Cl)nc2CCCCCn2c(-c3nc4cc(C(=O)N5C[C@H](N)[C@@H]6CC[C@H]5C6)cc(F)c4n3CC3CC3)cc3ccc1nc32 [Example 921, (2~{R})-17-[5-[(1~{S},4~{R},5~ {R})-4-amino-2-azabicyclo [3.2.1]octane-2-carbonyl]-1-(cyclopropylmethyl)-7-fluoro-benzimidazol-2-yl]-8-chloro-2-methyl-3,9,16,22-tetrazatetracyclo[14.5.2.0^ {5,10}.0^{19,23}]tricosa-1(22),5(10),6,8,17,19(23),20-heptaen-4-one]"
4,6.92,"COc1cc(C(=O)N2C[C@H]3CC[C@@H]2[C@@H]3N)cc2nc(-c3cc4ccc5nc4n3CCCCCCC(C)(C)C(=O)N[C@@H]5C)n(C)c12 [Example 13, (11~{R})-17-[5-[(1~{R},4~{R},7~{R})-7-amino-2-azabicyclo[2.2.1]heptane-2-carbonyl]-7-methoxy-1-methyl-benzimidazol-2-yl]-8,8,11-trimethyl-1,10,19-triazatricyclo[10.5.2.0^{15,18}]nonadeca-12(19),13,15(18),16-tetraen-9-one]"
5,7.16,"COc1nccc2c1C(=O)N[C@H](C)c1ccc3cc(-c4nc5cc(C(=O)N6CC[C@@H](OC)[C@@H](N)C6)cc(OC)c5n4C)n(c3n1)CCCCC2 [Example 863, (2~{R})-17-[5-[(3~{S},4~{R})-3-amino-4-methoxy-piperidine-1-carbonyl]-7-methoxy-1-methyl-benzimidazol-2-yl]-6-methoxy-2-methyl-3,7,16,22-tetrazatetracyclo[14.5.2.0^ {5,10}.0^{19,23}]tricosa-1(22), 5(10),6,8,17,19(23),20-heptaen-4-one]"
6,7.19,"COc1cc(C(=O)N[C@H]2CNC[C@H](O)C2)cc2nc(-c3cc4ccc5nc4n3CCCCCCC(C)(C)C(=O)N[C@@H]5C)n(C)c12 [Example 526, ~{N}-[(3~{R},5~{R})-5-hydroxy-3-piperidyl]-7-methoxy-1-methyl-2-[(11~{R})-8,8,11-trimethyl-9-oxo-1,10,19-triazatricyclo [10.5.2.0^{15,18}]nonadeca-12(19),13,15(18),16-tetraen-17-yl]benzimidazole-5-carboxamide]"
7,7.28,"CO[C@@H]1CCN(C(=O)c2cc3nc(-c4cc5ccc6nc5n4CCCCC[C@@H]4C[C@H]4C(=O)N[C@@H]6C)n(C4CC4)c3cc2F)C[C@@H]1N [Example 572, (2~{R},5~{R},7~{R})-14-[5-[(3~{S},4~{R})-3-amino-4-methoxy-piperidine-1-carbonyl]-1-cyclopropyl-6-fluoro-benzimidazol-2-yl]-2-methyl-3,13,19-triazatetracyclo [11.5.2.0^{5,7}.0^{16,20}] icosa-1(19),14,16(20), 17-tetraen-4-one]"
8,7.38,"C[C@H]1NC(=O)[C@@H]2C[C@H]2CCCCCn2c(-c3nc4cc(C(=O)N[C@H]5CNCC[C@@H]5F)c(F)cc4n3[C@H]3C[C@H]3C(F)F)cc3ccc1nc32 (single isomer, unassigned) [Example 412, 1-[(1~{S},2~{R})-2-(difluoromethyl)cyclopropyl]-6-fluoro-~ {N}-[(3~{S),4~{S})-4-fluoro-3-piperidyl]-2-[(2~{R},5~{R},7~{R})-2-methyl-4-oxo-3,13,19-triazatetracyclo[11.5.2.0^{5,7}.0^{16,20}]icosa-1(19),14,16(20),17-tetraen-14-yl]benzimidazole-5-carboxamide]"
9,7.09,"COc1cc(C(=O)N2[C@H]3CC[C@@H]2[C@H](N)C3)cc2nc(-c3cc4ccc5nc4n3CCCCCCNC(=O)c3ncccc3-5)n(C)c12 [Example 91, 17-[5-[(1˜{R},2˜{R},4˜{S})-2-amino-7-azabicyclo[2.2.1]heptane-7-carbonyl]-7-methoxy-1-methyl-benzimidazol-2-yl]-6,9,16,22-tetrazatetracyclo[14.5.2.0^{2,7}.0^{19,23}]tricosa-1(22),2,4,6,17,19(23),20-heptaen-8-one]"
10,7.51,"CO[C@@H]1CCN(C(=O)c2cc(F)c3c(c2)nc(-c2cc4ccc5nc4n2CCCCCCC(c2ccccn2)C(=O)N[C@@H]5C)n3C2CC2)C[C@@H]1N (stereo partly drawn) [Example 871, (11~{R})-17-[5-[(3~{S), 4~{R})-3-amino-4-methoxy-piperidine-1-carbonyl]-1-cyclopropyl-7-fluoro-benzimidazol-2-yl]-11-methyl-8-(2-pyridyl)-1,10,19-triazatricyclo[10.5.2.0^{15,18}] nonadeca-12(19), 13,15(18),16-tetraen-9-one]"
11,6.47,"COc1cc(C(=O)N2CCC[C@@H](N)C2)cc2nc(-c3cc4ccc5nc4n3CCCCCCCCOC5C)n(C)c12 (stereo partly drawn) [Example 291, [(3˜{R})-3-amino-1-piperidyl]-[7-methoxy-1-methyl-2-(11-methyl-10-oxa-1,19-diazatricyclo[10.5.2.0^{15,18}]nonadeca-12(19),13,15(18),16-tetraen-17-yl)benzimidazol-5-yl]methanone]"
12,6.96,"COc1cc(C(=O)N[C@H]2CNCC[C@@H]2F)cc2nc(-c3cc4ccc5nc4n3CCCCC[C@H]3CC[C@@H]3C(=O)N[C@@H]5C)n(C)c12 (single isomer, unassigned) [Example 486, ˜{N}-[(3˜{S},4˜{S})-4-fluoro-3-piperidyl]-7-methoxy-1-methyl-2-[(2˜{R},5˜{S},8˜{S})-2-methyl-4-oxo-3,14,20-triazatetracyclo[12.5.2.0^{5,8}.0^{17,21}]henicosa-1(20),15,17(21),18-tetraen-15-yl]benzimidazole-5-carboxamide]"
13,7.47,"COc1cc(C(=O)N2[C@H]3CC[C@@H]2[C@H](N)C3)cc2nc(-c3cc4ccc5nc4n3CCCCCCCN(C)C(=O)N[C@@H]5C)c(C)n12 [Example 211, (12~{R})-18-[7-[(1~{R},2~{R},4~{S})-2-amino-7-azabicyclo[2.2.1]heptane-7-carbonyl]-5-methoxy-3-methyl-imidazo[1,2-a]pyridin-2-yl]-9,12-dimethyl-1,9,11,20-tetrazatricyclo[11.5.2.0^{16,19}]icosa-13(20),14,16(19),17-tetraen-10-one]"
14,6.37,"COc1cc(C(=O)N2CCC[C@@H](N)C2)cc2nc(-c3cc4ccc5cc4n3CCCCCCNC(=O)c3ncccc3-5)n(C)c12 [Example 52, 17-[5-[(3~{R})-3-aminopiperidine-1-carbonyl]-7-methoxy-1-methyl-benzimidazol-2-yl]-6,9,16-triazatetracyclo[14.5.2.0^{2,7}.0^{19,23}] tricosa-1(22),2,4,6,17,19(23),20-heptaen-8-one]"
15,7.33,"COc1cc(C(=O)N2CCC[C@@H](N)C2)cc2nc(-c3cc4ccc5nc4n3CCCCCCCN(C)C(=O)N[C@@H]5C)c(C)n12 [Example 146, (12~{R})-18-[7-[(3~{R})-3-aminopiperidine-1-carbonyl]-5-methoxy-3-methyl-imidazo[1,2-a]pyridin-2-yl]-9,12-dimethyl-1,9,11,20-tetrazatricyclo[11.5.2.0^{16,19}]icosa-13(20),14,16(19),17-tetraen-10-one]"
16,7.33,"C[C@H]1NC(=O)[C@@H]2C[C@H]2CCCC(F)(F)Cn2c(-c3nc4cc(C(=O)N5C[C@H](N)[C@@H]6CC[C@H]5C6)cc(F)c4n3[C@H]3C[C@@H]3F)cc3ccc1nc32 [Example 479, (2~{R},5~{R},7~{R})-14-[5-[(1~{S},4~{R},5~{R})-4-amino-2-azabicyclo[3.2.1]octane-2-carbonyl]-7-fluoro-1-[(1~{S},2~{S})-2-fluorocyclopropyl]benzimidazol-2-yl]-11,11-difluoro-2-methyl-3,13,19-triazatetracyclo[11.5.2.0^{5,7}.0^{16,20}] icosa-1(19),14,16(20),17-tetraen-4-one]"
17,7.19,"C[C@H]1NC(=O)C(C)(C)CCCCCCn2c(-c3nc4cc(C(=O)N5[C@H]6CC[C@@H]5[C@H](N)C6)c(F)cc4n3C3CC3)cc3ccc1nc32 [Example 488, (11~{R})-17-[5-[(1~ {R},2~{R},4~{S})-2-amino-7-azabicyclo [2.2.1]heptane-7-carbonyl]-1-cyclopropyl-6-fluoro-benzimidazol-2-yl]-8,8,11-trimethyl-1,10,19-triazatricyclo [10.5.2.0^{15,18}]nonadeca-12(19),13,15(18),16-tetraen-9-one]"
18,7.62,"[2H]C1([2H])CCCn2c(-c3nc4cc(C(=O)N5C[C@H](N)[C@@H]6CC[C@H]5C6)cc(F)c4n3C3CC3)cc3ccc(nc32)[C@@H](C)NC(=O)c2ccc(Cl)nc2C1([2H])[2H] [Example 951, (2~{R})-17-[5-[(1~{S},4~{R}, 5~{R})-4-amino-2-azabicyclo [3.2.1]octane-2-carbonyl]-1-cyclopropyl-7-fluoro-benzimidazol-2-yl]-8-chloro-11,11,12,12-tetradeuterio-2-methyl-3,9,16,22-tetrazatetracyclo[14.5.2.0^ {5,10).0^{19,23}]tricosa-1(22),5(10),6,8,17,19(23),20-heptaen-4-one]"
